According to US20050222055A1 (priority 2002, published 2005):

What was measured:
RRE RNA = assay: Bond constant by competitive luminescence anisotropy (CRP probe displacement), RRE RNA; conditions: luminescence anisotropy competition with CRP, 20° C., HEPES pH 7.5; read-out: binding force (KD) against RRE RNA
Experimental: (§1) A sense DNA of 16S rRNA (sequence listing 1) and an antisense DNA of 16S rRNA (sequence listing 2); a sense DNA of RRE RNA (sequence listing 3) and an antisense DNA of RRE RNA (sequence listing 4); and a sense DNA of 23S RNA (sequence listing 5) and an antisense DNA of 23S RNA (sequence listing 6) was prepared according to the present invention.
(§2) Paricularly, the two DNAs comprising sense and antisense (2.5 nanomole, respectively), 5× buffer solution (200 mM Tris-HCl, 30 mM MgCl2, 10 mM spermidine, 50 mM NaCl, pH 7.9; 20 μl), 100 mM DL-dithiotheitol (DTT; 20 μl), four nucleotide tri phosphate mixture (2.5 mM, 20 μl), T7 RNA polymerase (50 units/mL; 1 μl) and diluted water (34 μl) were mixed and cultured at 37° C. for 2 hours. And then 1 unit/ml of Rnase-free RQ1 Dnase was added to the mixture and cultured at 37° C. for 10 minutes. 100 μl of a PCI mixture solution (phenol:chloroform:[…]=25:24:1) was added to the obtained mixture, mixed at room temperature for 5 minutes and then centrifuged at 1400 rpm for 10 minutes. […]
(§3) The paromomycin bonded with tetramethylrhodamine (hereinafter referred to as “[…]”) is used as a luminescence fluorescent probe. The luminescence anisotropy is measured by establishing a thermostat of 20° C. at the Perkin-Elmer LS-50B luminescence spectroscope. The luminescence absorptance of CRP is 510 nm and its luminescence fluorescent is observed at 550 nm. […]

23S rRNA = assay: Bond constant by competitive luminescence anisotropy (CRP probe displacement), 23S rRNA; conditions: read-out: binding force (KD) against 23S RNA; luminescence anisotropy competition with CRP, 20° C., HEPES pH 7.5; read-out: binding force (KD) against 32S RNA
Experimental: as §1, §2, §3

16S rRNA = assay: Bond constant by competitive luminescence anisotropy (CRP probe displacement), 16S rRNA; conditions: luminescence anisotropy competition with CRP, 20° C., HEPES pH 7.5; read-out: binding force (KD) against 16s rRNA
Experimental: as §1, §2, §3

Neomycin
Kd (RRE RNA): 180 nM | Kd (23S rRNA): > 2000 nM | Kd (16S rRNA): > 2000 nM
